Data from US7414068B2, “Benzopyran derivatives substituted with secondary amines including tetrazole, method for the preparation thereof and pharmaceutical compositions containing them” (Dongbu Hannong Chemical Co., Ltd., priority 2002, dated 2008).

How the values were obtained:
cortical neuron cells = assay: Protective effect on iron-induced neuronal cell injury (LDH release); assay type: cell-based; details: FeSO4 50 μM; for protective effect on neuron cell: Inhibition (%, 30 μM compound addition): LDH reduction vs control; for IC50: LDH
Procedure: From the brains of 17˜18 day-old embryos, cortical neuron cells were isolated and then, cultured at 37° C. for 7˜9 days in a 5% CO2 incubator. The said cortical cell cultures were washed twice with MEM (Minimum essential medium) to reduce the serum level to 0.2%. […] Then, the compound of the said concentration was pre-treated for 30 min, respectively. For the experiment, test compound was dissolved in DMSO and diluted in a medium. At this time, the final concentration of DMSO was not allowed to exceed 0.1%. For control group, only vehicle was applied.
After the said pre-treatment, FeSO4 was added to the medium for a final concentration to be 50 μM. The medium was cultured in CO2 incubator for 24 hours. During the incubation, lactate dehydrogenase (LDH) was released by iron. The serum level of lactate dehydrogenase released into the medium was measured to assess necrosis of neuronal cell by the oxidative toxicity of iron. The protective effect on neuron cells of the test compounds was evaluated by calculating the LDH reduction rate of treatment-group compared with that of the control group.

isolated rat aorta = assay: Vasodilating effect on blood vessel excised from rats (methoxamine-constricted aorta); details: isolated rat aorta constricted with methoxamine (3 μM); read-out: Concentration for inhibition of constriction induced by methoxamine in rat arota (IC50)
Description: Rats (350˜450 g, obtained from the Experimental Animal Team of the Korea Research Institute of Chemical Technology) were knocked to be unconscious by hitting the occipital region, sacrificed by cervical dislocation, and underwent thoracotomy. After being quickly removed, the thoracic aorta was deprived of the adipose tissue and cut into aortic rings of 3 mm width. The aorta was lightly rubbed with cotton club soaked in a modified Krebs Henseleit buffer (Physiological salt solution) to remove the inner epithelial layer therefrom. While being hung in an organ bath containing a physiological buffer, the vascular smooth muscle was allowed to equilibrate under a resting tension of 2 g and then, stand for 1 hour at 37° C. for stabilization, supplying a carbogen consisting of 95% O2˜5% CO2.
Thereafter, the vascular smooth muscle was constricted with 10^−5M phenylephrine and washed several times with physiological saline solution. The said procedure was repeated again to ensure the stable reactivity of vascular smooth muscle to repetitive constriction/relaxation.
Thereafter, 3×10^−6 M methoxamine was applied to induce an intensive constriction in the vascular smooth muscle. When the vasoconstriction induced by the methoxamine was reached and maintained to a maximum, test compounds and control material was cumulatively added to the organ bath in concentration of 1, 3, 10 and 30 μM, respectively, to examine the vasodilating effect. Cromakalim, BMS-180448 (the compound of formula 4) and BMS-191095 (the compound of formula 5), known to be the first generation KATP opener with potent vasodilating effect were used as control materials.
The change rate of constriction by the addition of the drugs compared to the maximal constriction induced by methoxamine was calculated to plot a concentration-relaxation response curve. Through a least linear regression analysis, IC50 that the drug concentration at which the vascular tissue is relaxed to 50% extent of the maximal constriction, was obtained for each drug.

[1] = Acute oral toxicity test in rats; details: SD, rat, in vivo, single oral dose, suspended in 0.5% methyl cellulose, read-out: lethal dose (LD50) for oral administration
Procedure: In this test, six-week old SPF SD rats were used with two rats assigned to each group. Each group was consisted of two rats. The compounds prepared in example 1, 7, 11, 17, 22, 24, 26, 28, 30, 32, 34, 42, 52, 54, 55, 56, 57, 59, 60, 61, 70, 75, 77, 79, 81, 83, 85, and 89 were suspended in 0.5% methyl cellulose, respectively. […] Also, hematological test and biochemical analysis were accomplished. After sacrificing the animals, autopsy was performed for macroscopic observations of the organs and tissues. As a result, there was no significant changes in clinical symptoms, body weight and mortalities. Also in hematology, serum chemistry parameters, macroscopic observation and drug-related changes were not observed.

Row | Structure (SMILES) | protective effect on neuron cell: Inhibition (%, 30 μM compound addition) (cortical neuron cells; 24 hours) [%] | IC50 (cortical neuron cells; Cortical neurone, 24 h) [µM] | IC50 (isolated rat aorta) [µM] | LD50 [1] [mg/kg] | IC50 (cortical neuron cells; 24 hours) [µM]
1 | COC(OC)[C@@]1(C)Oc2ccc([N+](=O)[O-])c(C)c2[C@@H](N(Cc2nnn(C)n2)c2ccc(Cl)cc2)[C@@H]1O [Example 98, (2S,3S,4R)-6-nitro-5-methyl-4-[N-(4-chlorophenyl)-N-(2-methyl-2H-tetrazol-5-ylmethyl)amino]-3-hydroxy-2-methyl-2-dimethoxymethyl-3,4-dihydro-2H-1-benzopyran] | 85 | 10.5 | 7.34 |  | 
2 | COC(OC)[C@@]1(C)Oc2ccc(N)cc2[C@@H](N(Cc2nnn(C)n2)c2ccc(Cl)cc2)[C@@H]1O [Example 10, (2S,3S,4R)-6-amino-4-[N-(4-chlorophenyl)-N-(2-methyl-2H-tetrazol-5-ylmethyl)amino]-3-hydroxy-2-methyl-2-dimethoxymethyl-3,4-dihydro-2H-1-benzopyran] | 103 | 2.2 | > 30 |  | 
3 | COC(OC)[C@@]1(C)Oc2ccc(N)cc2[C@H](N(Cc2nnn(C)n2)c2ccccc2)[C@H]1O [Example 55, (2S,3R,4S)-6-amino-4-[N-(2-methyl-2H-tetrazol-5-ylmethyl)phenylamino]-3-hydroxy-2-methyl-2-dimethoxymethyl-3,4-dihydro-2H-1-benzopyran] |  |  |  | > 2000 | 
4 | COC(OC)[C@@]1(C)Oc2ccc([N+](=O)[O-])cc2[C@H](N(Cc2nnn(C)n2)c2ccc(OC(F)(F)F)cc2)[C@H]1O [Example 31, (2S,3R,4S)-6-nitro-4-[N-(4-trifluoromethoxyphenyl)-N-(2-methyl-2H-tetrazol-5-ylmethyl)amino]-3-hydroxy-2-methyl-2-dimethoxymethyl-3,4-dihydro-2H-1-benzopyran] | 86 | < 2 | > 30 |  | 1.8
5 | COC(OC)[C@@]1(C)Oc2ccc([N+](=O)[O-])cc2[C@H](N(Cc2nnn(C)n2)c2ccc(C(F)(F)F)cc2)[C@H]1O [Example 33, (2S,3R,4S)-6-nitro-4-[N-(4-trifluoromethylphenyl)-N-(2-methyl-2H-tetrazol-5-ylmethyl)amino]-3-hydroxy-2-methyl-2-dimethoxymethyl-3,4-dihydro-2H-1-benzopyran] | 91 | 6 |  |  | 
6 | COC(OC)[C@]1(C)Oc2ccc([N+](=O)[O-])cc2[C@@H](N(Cc2nnn(C)n2)c2ccc(OC(F)(F)F)cc2)[C@@H]1O [Example 84, (2R,3S,4R)-6-nitro-4-[N-(4-trifluoromethoxyphenyl)-N-(2-methyl-2H-tetrazol-5-ylmethyl)amino]-3-hydroxy-2-methyl-2-dimethoxymethyl-3,4-dihydro-2H-1-benzopyran] | 48 | 5.6 |  |  | 
7 | COC(OC)[C@@]1(C)Oc2ccc([N+](=O)[O-])cc2[C@@H](N(Cc2nnn(C)n2)c2ccc(C(F)(F)F)cc2)[C@@H]1O [Example 74, (2S,3S,4R)-6-nitro-4-[N-(4-trifluoromethylphenyl)-N-(2-methyl-2H-tetrazol-5-ylmethyl)amino]-3-hydroxy-2-methyl-2-dimethoxymethyl-3,4-dihydro-2H-1-benzopyran] | 90 | 5.3 |  |  | 
8 | COC(OC)[C@@]1(C)Oc2ccc(N)cc2[C@H](N(Cc2nnn(C)n2)c2ccc(O)cc2C)[C@H]1O [Example 65, (2S, 3R,4S)-6-amino-4-[N-(2methyl-4-hydroxyphenyl)-N-(2-methyl-2H-tetrazol-5-ylmethyl)amino]-3-hydroxy-2-methyl-2-dimethoxymethyl-3,4-dihydro-2H-1-benzopyran] |  |  | > 30 |  | 
9 | COC(OC)[C@]1(C)Oc2ccc([N+](=O)[O-])cc2[C@@H](N(Cc2nnn(C)n2)c2ccc(C(F)(F)F)cc2)[C@@H]1O [Example 76, (2R,3S,4R)-6-nitro-4-[N-(4-trifluoromethylphenyl)-N-(2-methyl-2H-tetrazol-5-ylmethyl)amino]-3-hydroxy-2-methyl-2-dimethoxymethyl-3,4-dihydro-2H-1-benzopyran] | 52 | 5.7 |  |  | 
10 | COC(OC)[C@]1(C)Oc2ccc([N+](=O)[O-])cc2[C@H](N(Cc2nnn(C)n2)c2ccc(OC(F)(F)F)cc2)[C@H]1O [Example 82, (2R,3R,4S)-6-nitro-4-[N-(4-trifluoromethoxyphenyl)-N-(2-methyl-2H-tetrazol-5-ylmethyl)amino]-3-hydroxy-2-methyl-2-dimethoxymethyl-3,4-dihydro-2H-1-benzopyran] | 69 | < 2 |  |  | 1.3
11 | COC(OC)[C@@]1(C)Oc2ccc(N)cc2[C@H](N(Cc2nnn(C)n2)c2cc(C)ccc2O)[C@H]1O [Example 71, (2S,3R,4S)-6-amino-4-[N-(2-hydroxy-5-methylphenyl)-N-(2-methyl-2H-tetrazol-5-ylmethyl)amino]-3-hydroxy-2-methyl-2-dimethoxymethyl-3,4-dihydro-2H-1-benzopyran] | 89 | < 1 |  |  | 0.9
12 | CC1(C)Oc2ccc(C#N)cc2C(N2CCCC2=O)C1O (centres unmarked) [Cromakalim, reference compound] |  |  | 0.067 |  | 
13 | COC(OC)[C@@]1(C)Oc2ccc([N+](=O)[O-])cc2[C@@H](N(Cc2nnn(C)n2)c2ccc(OC(F)(F)F)cc2)[C@@H]1O [Example 80, (2S,3S,4R)-6-nitro-4-[N-(4-trifluoromethoxyphenyl)-N-(2-methyl-2H-tetrazol-5-ylmethyl)amino]-3-hydroxy-2-methyl-2-dimethoxymethyl-3,4-dihydro-2H-1-benzopyran] | 95 | 5 |  |  | 
14 | COC(OC)[C@]1(C)Oc2ccc([N+](=O)[O-])cc2[C@H](N(Cc2nnn(C)n2)c2ccc(C(F)(F)F)cc2)[C@H]1O [Example 78, (2R,3R,4S)-6-nitro-4-[N-(4-trifluoromethylphenyl)-N-(2-methyl-2H-tetrazol-5-ylmethyl)amino]-3-hydroxy-2-methyl-2-dimethoxymethyl-3,4-dihydro-2H-1-benzopyran] | 69 | 4.4 |  |  | 
15 | COC(OC)[C@@]1(C)Oc2ccc(N)cc2[C@H](N(Cc2ccccc2)Cc2nnn(C)n2)[C@H]1O [Example 57, (2S,3R,4S)-6-amino-4[N-benzyl-N-(2-methyl-2H-tetrazol-5-ylmethyl)amino]-3-hydroxy-2-methyl-2-dimethoxymethyl-3,4-dihydro-2H-1-benzopyran] | 94 | 3.1 |  | > 2000 | 
16 | COC[C@]1(C)Oc2ccc([N+](=O)[O-])cc2[C@@H](N(Cc2nnn(C)n2)c2ccc(F)cc2)[C@@H]1O [Example 99, (2S,3S,4R)-6-nitro-4-[N-(4-fluorophenyl)-N-(2-methyl-2H-tetrazol-5-ylmethyl)amino]-3-hydroxy-2-methyl-2-methoxymethyl-3,4-dihydro-2H-1-benzopyran] | 69 | 20.8 |  |  | 
17 | CC1(C)Oc2ccc(C#N)cc2[C@H](N(Cc2ncc[nH]2)c2ccc(Cl)cc2)[C@H]1O [BMS-191095, reference compound] |  |  | 2.14 |  | 
18 | COC(OC)[C@]1(C)Oc2ccc(N)cc2[C@H](N(Cc2nnn(C)n2)c2ccc(C(F)(F)F)cc2)[C@H]1O [Example 79, (2R,3R,4S)-6-amino-4-[N-(4-trifluoromethylphenyl)-N-(2-methyl-2H-tetrazol-5-ylmethyl)amino]-3-hydroxy-2-methyl-2-dimethoxymethyl-3,4-dihydro-2H-1-benzopyran] | 107 | < 2 |  | > 2000 | 1.7
